Source: paper PMC7252619 (PLoS ONE, 2020)
Read-outs that look alike come from different tables or passages of the source.

Target: T1, MST-4 (Homo sapiens, UniProt Q9P289)
T1 construct: purchased ReactionBiology
Assay: Kinase activity test (ReactionBiology), % enzyme activity relative to DMSO;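 further: marketed FDA-approved drugs screened at 10 µM and 1 µM against a ten-kinase panel, remaining activity given as percent of DMSO controls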
Format: biochemical
Details: MST4

[1] = Average, read-out: % Enzyme Activity (relative to DMSO controls), Average
[2] = replicate Data 1, read-out: % Enzyme Activity (relative to DMSO controls), Data 1
[3] = replicate Data 2, read-out: % Enzyme Activity (relative to DMSO controls), Data 2

T1 sequence (Q9P289 whole entry): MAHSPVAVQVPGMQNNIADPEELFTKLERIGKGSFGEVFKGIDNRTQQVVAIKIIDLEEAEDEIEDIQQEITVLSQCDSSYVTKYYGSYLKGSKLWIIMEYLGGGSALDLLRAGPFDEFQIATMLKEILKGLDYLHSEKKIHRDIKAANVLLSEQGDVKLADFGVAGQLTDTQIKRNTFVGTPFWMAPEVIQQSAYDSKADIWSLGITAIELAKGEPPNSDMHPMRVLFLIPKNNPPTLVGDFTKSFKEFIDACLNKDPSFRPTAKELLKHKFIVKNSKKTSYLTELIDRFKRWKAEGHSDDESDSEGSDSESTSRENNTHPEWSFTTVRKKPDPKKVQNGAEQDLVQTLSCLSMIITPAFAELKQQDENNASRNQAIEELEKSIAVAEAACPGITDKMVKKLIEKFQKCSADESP

- remaining activity at 1 µM [1]: 91.7%
- remaining activity at 1 µM [2]: 92.1%
- remaining activity at 1 µM [3]: 91.2%
- remaining activity at 10 µM [1]: 78.5%
- remaining activity at 10 µM [2]: 69.9%
- remaining activity at 10 µM [3]: 87.1%
SMILES: Nc1ncnc2c1ncn2[C@@H]1O[C@H](CO)[C@@H](O)[C@H]1O [Adenosine, reference compound]
